Read-outs that look alike come from different tables or passages of the source.
What was measured:
[1] = test system: 92-1 uveal melanoma cells; experiment: 92-1 uveal melanoma xenograft, Example 16; format: in vivo
OATP1B3 = target: T1, OATP1B3 (Homo sapiens, UniProt Q9NPD5); experiment: Transporter inhibition in MDCK-II cells, OATP1B3; format: in vitro ADME; conditions: probe CCK-8 2 μM
T1 construct: expressed in transfected cells; host or cells: MDCK-II

2C19 = target: T2, 2C19 (Homo sapiens, UniProt P33261); experiment: Selective chemical inhibition of compound of formula (I) depletion in human liver microsomes, CYP2C19; format: in vitro ADME; conditions: reaction phenotyping
T2 construct: from tissue; host or cells: human liver microsomes
T2 sequence (P33261 whole entry): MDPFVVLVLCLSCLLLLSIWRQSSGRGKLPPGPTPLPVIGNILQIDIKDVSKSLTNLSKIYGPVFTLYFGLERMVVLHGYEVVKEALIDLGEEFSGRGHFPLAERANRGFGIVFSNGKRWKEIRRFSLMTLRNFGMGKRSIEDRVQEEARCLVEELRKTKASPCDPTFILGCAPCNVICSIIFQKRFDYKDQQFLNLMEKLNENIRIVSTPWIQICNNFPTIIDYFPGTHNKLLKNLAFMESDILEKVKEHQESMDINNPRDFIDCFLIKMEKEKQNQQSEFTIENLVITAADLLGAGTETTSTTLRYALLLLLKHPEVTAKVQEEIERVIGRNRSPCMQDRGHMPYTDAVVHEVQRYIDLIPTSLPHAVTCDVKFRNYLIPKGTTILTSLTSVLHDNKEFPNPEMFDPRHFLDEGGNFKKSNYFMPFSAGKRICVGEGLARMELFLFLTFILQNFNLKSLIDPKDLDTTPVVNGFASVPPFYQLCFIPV

CYP2C9 = CYP2C9 (Homo sapiens, UniProt P11712); experiment: Depletion by recombinant CYP enzyme, CYP2C9; format: in vitro ADME; parameters: from tissue; host or cells: pooled human liver microsomes; conditions: recombinant 2C9
Chain of CYP2C9 (P11712 whole entry): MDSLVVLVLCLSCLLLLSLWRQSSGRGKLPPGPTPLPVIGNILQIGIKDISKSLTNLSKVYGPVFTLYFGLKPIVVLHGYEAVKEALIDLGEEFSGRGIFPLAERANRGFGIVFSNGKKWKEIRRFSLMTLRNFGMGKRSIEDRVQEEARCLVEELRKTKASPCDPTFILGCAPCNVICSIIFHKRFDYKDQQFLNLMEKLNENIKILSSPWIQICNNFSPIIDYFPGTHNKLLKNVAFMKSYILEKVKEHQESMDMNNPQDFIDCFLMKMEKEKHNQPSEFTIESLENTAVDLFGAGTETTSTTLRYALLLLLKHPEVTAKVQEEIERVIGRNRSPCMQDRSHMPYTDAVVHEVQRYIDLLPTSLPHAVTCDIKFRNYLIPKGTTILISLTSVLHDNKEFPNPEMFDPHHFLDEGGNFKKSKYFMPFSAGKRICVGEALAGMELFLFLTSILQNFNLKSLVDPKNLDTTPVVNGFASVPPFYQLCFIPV

CYP3A4 mRNA = experiment: CYP mRNA level (qRT-PCR) in cultured human hepatocytes, CYP3A4; format: in vitro ADME; conditions: 72 hours
[2] = Oral absorption in dogs, capsule; format: in vivo; conditions: administered in a capsule
CHD4 enzyme = CHD4 enzyme (Homo sapiens, UniProt Q14839); experiment: ADP-Glo ATPase assay, CHD4; format: biochemical; conditions: concentrations up to 200 μM (n=3)
Chain of CHD4 enzyme (Q14839 whole entry, species assumed): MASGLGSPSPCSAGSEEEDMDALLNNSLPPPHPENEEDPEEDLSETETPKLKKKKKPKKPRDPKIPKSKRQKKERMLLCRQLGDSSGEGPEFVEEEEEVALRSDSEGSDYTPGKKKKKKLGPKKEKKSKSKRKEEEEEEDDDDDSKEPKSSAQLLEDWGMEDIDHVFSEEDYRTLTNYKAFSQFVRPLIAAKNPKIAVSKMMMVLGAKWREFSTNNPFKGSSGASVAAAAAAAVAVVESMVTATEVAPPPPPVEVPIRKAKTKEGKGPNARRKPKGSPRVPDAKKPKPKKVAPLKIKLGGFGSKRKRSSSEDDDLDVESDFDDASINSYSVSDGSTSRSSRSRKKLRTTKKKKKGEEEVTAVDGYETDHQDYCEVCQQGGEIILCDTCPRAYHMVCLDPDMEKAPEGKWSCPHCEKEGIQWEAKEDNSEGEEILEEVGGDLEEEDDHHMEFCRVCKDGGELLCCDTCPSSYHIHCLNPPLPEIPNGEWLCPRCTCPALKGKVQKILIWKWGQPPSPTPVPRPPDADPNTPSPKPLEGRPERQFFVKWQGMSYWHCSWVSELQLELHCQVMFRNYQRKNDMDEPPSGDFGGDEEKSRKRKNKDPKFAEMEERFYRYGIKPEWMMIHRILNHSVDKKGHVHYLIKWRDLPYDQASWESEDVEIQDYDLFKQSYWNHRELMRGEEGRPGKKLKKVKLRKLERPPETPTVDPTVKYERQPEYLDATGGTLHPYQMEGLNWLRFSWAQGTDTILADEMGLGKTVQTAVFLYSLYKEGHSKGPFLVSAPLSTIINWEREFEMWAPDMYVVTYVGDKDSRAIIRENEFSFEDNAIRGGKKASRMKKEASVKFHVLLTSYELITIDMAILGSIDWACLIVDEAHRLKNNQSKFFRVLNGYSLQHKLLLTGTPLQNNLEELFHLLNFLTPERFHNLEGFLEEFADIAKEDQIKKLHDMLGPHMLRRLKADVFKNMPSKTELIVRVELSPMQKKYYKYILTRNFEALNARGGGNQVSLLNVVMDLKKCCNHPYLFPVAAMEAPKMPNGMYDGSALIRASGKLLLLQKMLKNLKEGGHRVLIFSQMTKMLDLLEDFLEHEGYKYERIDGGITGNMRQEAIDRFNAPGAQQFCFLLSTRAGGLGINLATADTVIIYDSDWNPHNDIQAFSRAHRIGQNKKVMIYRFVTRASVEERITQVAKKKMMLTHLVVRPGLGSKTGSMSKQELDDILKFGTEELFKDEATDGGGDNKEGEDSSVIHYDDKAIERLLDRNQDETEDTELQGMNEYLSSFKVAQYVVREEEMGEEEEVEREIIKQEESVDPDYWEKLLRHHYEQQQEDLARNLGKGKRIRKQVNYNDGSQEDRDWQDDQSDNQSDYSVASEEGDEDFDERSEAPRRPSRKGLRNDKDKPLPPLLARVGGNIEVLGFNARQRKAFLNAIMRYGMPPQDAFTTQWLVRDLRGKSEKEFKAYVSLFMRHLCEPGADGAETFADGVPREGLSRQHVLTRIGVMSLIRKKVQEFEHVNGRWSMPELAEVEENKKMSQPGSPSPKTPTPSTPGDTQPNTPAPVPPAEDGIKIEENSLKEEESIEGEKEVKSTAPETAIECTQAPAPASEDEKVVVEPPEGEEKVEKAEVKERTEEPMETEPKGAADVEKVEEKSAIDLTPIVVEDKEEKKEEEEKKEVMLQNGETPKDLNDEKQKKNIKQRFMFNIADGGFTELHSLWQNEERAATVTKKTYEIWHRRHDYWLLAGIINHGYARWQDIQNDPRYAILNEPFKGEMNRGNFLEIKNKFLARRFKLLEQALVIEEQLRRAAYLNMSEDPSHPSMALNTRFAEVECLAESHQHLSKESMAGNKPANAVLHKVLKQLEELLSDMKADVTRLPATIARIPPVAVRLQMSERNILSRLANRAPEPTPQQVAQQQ

CYP2C19 [3] = target: T3, CYP2C19 (Homo sapiens, UniProt P33261); experiment: Depletion by recombinant CYP enzyme, CYP2C19; format: in vitro ADME; parameters: from tissue; host or cells: pooled human liver microsomes; conditions: recombinant 2C19
T3 sequence (P33261 whole entry): as the sequence (P33261 whole entry) above

CYP2C19 [4] = target: T3, CYP2C19; experiment: CYP enzyme inhibition in pooled human liver microsomes, CYP2C19; conditions: for inhibition at 30 µM: human, microsomes, Enzyme activity (% inhibition), CYP2C19, probe S-Mephenytoin
CYP1a2 mRNA = experiment: CYP mRNA expression in cultured rat hepatocytes, CYP1a2; format: in vitro ADME; conditions: 0.3 to 100 nM
3A4/5 = experiment: Selective chemical inhibition of compound of formula (I) depletion in human liver microsomes, CYP3A4/5; conditions: reaction phenotyping
SBC-5 cells = experiment: 10-day proliferation assay, negative control cells lacking BRG1 and BRM; conditions: Homo sapiens, SBC-5, 240 h, read-out: mean IC50, cell proliferation
CYP3a23 mRNA = experiment: CYP mRNA expression in cultured rat hepatocytes, CYP3a23; format: in vitro ADME; conditions: 0.3 to 100 nM

T1 sequence (Q9NPD5 whole entry): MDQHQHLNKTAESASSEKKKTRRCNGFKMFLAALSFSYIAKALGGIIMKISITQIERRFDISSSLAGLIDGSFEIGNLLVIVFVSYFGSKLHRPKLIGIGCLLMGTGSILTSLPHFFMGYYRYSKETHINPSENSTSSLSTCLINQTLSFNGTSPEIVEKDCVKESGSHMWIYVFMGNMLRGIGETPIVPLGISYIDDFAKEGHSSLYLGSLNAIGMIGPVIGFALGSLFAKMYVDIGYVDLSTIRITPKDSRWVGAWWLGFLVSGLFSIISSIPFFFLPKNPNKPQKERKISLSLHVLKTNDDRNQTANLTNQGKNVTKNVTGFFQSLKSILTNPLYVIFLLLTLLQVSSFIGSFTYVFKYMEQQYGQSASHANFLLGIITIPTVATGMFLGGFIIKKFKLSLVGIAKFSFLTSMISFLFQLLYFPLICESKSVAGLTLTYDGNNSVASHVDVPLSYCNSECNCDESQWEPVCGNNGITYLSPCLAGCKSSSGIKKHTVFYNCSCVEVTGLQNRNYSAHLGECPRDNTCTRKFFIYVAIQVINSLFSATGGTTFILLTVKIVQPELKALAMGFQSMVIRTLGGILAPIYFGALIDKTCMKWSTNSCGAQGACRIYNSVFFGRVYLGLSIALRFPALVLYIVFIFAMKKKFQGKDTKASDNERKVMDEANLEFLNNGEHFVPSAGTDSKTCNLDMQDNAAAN

## COC[C@H](NC(=O)c1ccn(S(C)(=O)=O)c1)C(=O)Nc1nc(-c2cccc(N3C[C@@H](C)O[C@@H](C)C3)n2)cs1 [compound of formula (I), N-((S)-1-((4-(6-(cis-2,6-dimethylmorpholino)pyridin-2-yl)thiazol-2-yl)amino)-3-methoxy-1-oxopropan-2-yl)-1-(methylsulfonyl)-1H-pyrrole-3-carboxamide]
[1]; […], once daily oral gavage
  tumor response at the highest dose: tumor regression
[1]; all treatments
  tolerability based on % body weight change: well tolerated
[1]; nude mice, 92-1 xenograft, once daily oral gavage, 3 weeks, increasing doses
  tumor growth inhibition: tumor growth inhibition in a dose-dependent manner
OATP1B3; OATP1B3, corrected, read-out: IC50 corrected for non-specific binding
  IC50: 2.68 µM
OATP1B3; OATP1B3 in MDCK-II cells, read-out: Estimated IC50 using nominal concentrations
  IC50: 11.4 µM
2C19
  role of CYP2C19 in metabolism in human liver microsomes: possible involvement of CYP2C19 to a lesser extent
CYP2C9; 0.1 μM
  % Remaining of Compound of Formula (I): 79.9%
CYP2C9; 1 μM
  % Remaining of Compound of Formula (I): 100%
CYP3A4 mRNA
  concentrations at which CYP3A4 mRNA expression was down-regulated (>50% decrease): ≥ 1 nM
[2]
  oral absorption: good oral absorption
CHD4 enzyme
  inhibition of the ATPase activity of the CHD4 enzyme: did not inhibit
CYP2C19 [3]; 0.1 μM
  % Remaining of Compound of Formula (I): 80.5%
CYP2C19 [3]; 1 μM
  % Remaining of Compound of Formula (I): 95.0%
CYP2C19 [4]
  IC50: > 30 µM
CYP2C19 [4]; PHLM, concentrations up to 30 μM
  direct inhibitory activity (% inhibition) toward CYP2C19: < 50%
CYP2C19 [4]; 30 Minutes Pre-incubation with NADPH, PHLM
  inhibition at 30 µM: 28.1%
CYP2C19 [4]; 30 Minutes Pre-incubation without NADPH, PHLM
  inhibition at 30 µM: 21.4%
CYP2C19 [4]; No Pre-incubation, PHLM
  inhibition at 30 µM: 23.1%
CYP1a2 mRNA
  CYP1a2 mRNA expression decreased ≥50%: but not CYP1a2
3A4/5
  role of CYP3A in metabolism in human liver microsomes: major CYP enzyme responsible
SBC-5 cells
  IC50: > 25 µM
CYP3a23 mRNA
  concentrations at which CYP3a23 mRNA expression was decreased ≥50%: ≥ 10 nM
